Laboratory results reported in patent publication US20040009967A1, “Pyridyl alkene- and pyridyl alkine- acid amides as cytostatics and immuno-suppressives” (Klinge Pharma GmbH, priority 1996, published 2004).
Read-outs that look alike come from different tables or passages of the source.

What was measured:
HepG2 cells = assay: Growth inhibition of HepG2 cells, six days of incubation, sulforhodamin-B-method; type: cell-based, human; settings: six days of substance incubation, read-out: IC50-value (concentration in which the cell growth was inhibited by 50%)
Protocol: HepG2 cells plated at a density of 20,000 cells/ml in 12-well plastic dishes. Cultivation occured in Richters IMEM-ZO nutrient medium with 5% fetal calf serum (FCS) in a tissue culture incubator with a gas mixture of 5% CO2 and 95% air at a temperature of 37° C. One day after plating, the culture medium was aspirated from the cells and replaced by fresh medium which contained the respective concentrations of the test substances. For the individual concentrations and the controls without test substances, three-fold batches were done for each. Three days after the beginning of treatment, the medium was again renewed with the test compounds. After six days of substance incubation, the test was ended and the protein amount in the individual wells was determined with the sulforhodamin-B-method (according to P. Skehan et al.: New Colorimetric Cytotoxity Assay for Anticancer-Drug Screening. J. Natl. Cancer Inst. 82: 1107-1112, 1990). The IC50-values (defined as that concentration in which the cell growth was inhibited by 50%) was taken from the dose-response curves and given as a comparative measurement for the activity of the test compounds.

[1] = test system: lymphocytes from the spleen of a Swiss mouse; assay: Immunosuppressing activity: vitality of freshly isolated spleen lymphocytes, flow-through cytometer; type: cell-based; settings: 2 days incubation, read-out: IC50 (percentage amount of vital cells)
Text: Many anti-tumor agents have not only a cytotoxic effect on tumor cells, but also on the blood cell system. This leads to a weakening of the immune defence, which can, in turn, be specifically employed to suppress the rejection reaction after an organ transplantation for example. Therefore, a use of the main compounds, optionally in combination with other compounds effective for these indications is suitable in diseases such as psoriasis or autoimmune diseases. In order to test the possibility for a therapeutic use in illnesses of this type, the substance activity was tested on freshly isolated lymphocytes as follows:
The spleen of a Swiss mouse served as a lymphocyte source. The lymphocyte population was isolated from the spleen cell suspension over a ficoll gradient and taken up in IMEM-ZO culture medium with 0,1% dextran 70,000 and 2% fetal calf serum. The cells were plated at a density of ca. 500,000 cells/well/ml in a 12-well plate, 1 ml doubly concentrated test substance solution was pipetted per well and this was subsequently incubated in a tissue culture incubator at 37° C. and 5% CO2. After 2 days, a 1 ml-aliquot with 5 μl of the fluorescent dye solutions propidium iodide (8 mg/ml) and 3,3′-dihexyloxacarbocyanin iodide (40 μg/ml) each was added per well, and incubated for 3 minutes at room temperature. Subsequently, 10,000 cells per each sample were measured on a flow-through cytometer and the percentage amount of vital cells in the population was determined. By means of the dose-response curves, IC50-values were calculated which were also employed in the following Tables for the characterization of the individual substances: […]

IC50 (HepG2 cells; Homo sapiens, 144 h) [nM] | IC50 ([1]; Lymphocyte, 48 h) [nM] | melting point [°C] | SMILES | also measured
 | 2 | 198 to 200 | O=C(C=Cc1cccnc1)NCCCCC1CCN(C(=O)Nc2cccc3ccccc23)CC1 [Substance 195, N-{4-[1-(1-naphthylaminocarbonyl)-piperidin-4-yl]-butyl}-3-(pyridin-3-yl)-acrylamide] | 
0.7 |  |  | O=C(C=Cc1cccnc1)NCCCCC1CCN(C(=O)c2cccc3c2-c2ccccc2C3=O)CC1 [Substance 178, N-{4-[1-(9-oxo-9H-fluoren-4-yl-carbonyl)-piperidin-4-yl]-butyl}-3-(pyridin-3-yl)-acrylamide] | 

Second part, the molecule before the results:

SMILES | IC50 (HepG2 cells; Homo sapiens, 144 h) [nM] | IC50 ([1]; Lymphocyte, 48 h) [nM] | melting point [°C] | also measured
O=C(C=Cc1cccnc1)NCCCCC1CCN(C(=O)N(c2ccccc2)c2ccccc2)CC1 [Substance 199, N-{4-[1-(diphenylaminocarbonyl)-piperidin-4-yl]-butyl}-3-(pyridin-3-yl)-acrylamide] | 1 | 0.04 |  | 
O=C(C=Cc1cccnc1)NCCCCC1CCN(C2c3ccccc3CSc3ccccc32)CC1 (stereo not drawn) [Substance 136, N-{4-[1-(6,11-dihydro-dibenzo[b,e]thiepin-11-yl)-piperidin-4-yl]-butyl}-3-(pyridin-3-yl)-acrylamide] | 2 |  | 89 to 91 | 
O=C(C=Cc1cccnc1)NCCCCC1CCN(C(=O)C(c2ccccc2)c2ccccc2)CC1 [Substance 150, N-[4-(1-diphenylacetyl-piperidin-4-yl)-butyl]-3-(pyridin-3-yl)-acrylamide] |  | 0.2 | 161 | 
O=C(C=Cc1cccnc1)NCCCCC1CCN(S(=O)(=O)c2ccc3ccccc3c2)CC1 [Substance 219, N-{4-[1-(2-naphthyl-sulfonyl)-piperidin-4-yl]-butyl}-3-(pyridin-3-yl)-acrylamide] |  |  | 85 to 87 | 
O=C(C=Cc1cccnc1)NCCCCC1CCN(C(=O)c2ccccc2)CC1 [Substance 159, N[4-(1-benzoylpiperidin-4-yl)-butyl]-3-(pyridin-3-yl)-acrylamide] |  |  |  | IC50 (HepG2 cells): 0.5 nM; IC50 [1]: 3 nM
